# Test system: 100% ethanol (EtOH)-induced gastric damage in rats
# Assay: 100% ethanol (EtOH)-induced gastric damage in rats, gastric damage inhibition and mucus enhancement
# Type: in vivo, Sprague Dawley (SD) rats
# Conditions: oral 3.0, 10.0 and 30.0 mg/kg, 1 hour before 100% EtOH
# Experimental: The inhibitory activity and defensive factor-enhancing effects of the compound prepared in Example 8 were measured using 100% ethanol (EtOH)-induced gastric damage model (Paul V. Tan et al., 2002, Journal of Ethnopharmacology, 82, p 69-74). Male Sprague Dawley (SD) rats (body weight 180-200 g) was fasted for 24 hours with free access to water. Control group was orally administered with 5 mL/kg of 0.5% methyl cellulose (MC) aqueous solution, and the other groups were orally administered with test compounds suspended in 0.5% MC aqueous solution at a dose of 3.0, 10.0 and 30.0 mg/kg/5 mL. For comparison, the compound of Example 134 (Comparative Example 1), the compound of Example 165 (Comparative Example 2) and the compound of Example 166 (Comparative Example 3) in International Patent Publication No. WO2006/036024 were orally administered at the same dose by suspending 0.5% MC aqueous solution, respectively. 1 hour after oral administration, 1 mL of 100% EtOH was orally administered. 1 hour after EtOH administration, the test animals were sacrificed to remove the stomach. Ten in the total 20 animals scraped the mucus of stomach with a slide glass and the mucus contents were analyzed to calculate ED50. […] The incised stomach was placed on a fixture, fixed by a fixing pin while spreading out using a forcep and then the gastric damage area was measured to calculate ED50.
structure (smiles),measurement,setting,value
"CNCc1cn(S(=O)(=O)c2cccc(F)c2)c(-c2ccc(F)cc2F)c1OC.Cl [Example 8, 1-(5-(2,4-difluorophenyl)-1-((3-fluorophenyl)sulfonyl)-4-methoxy-1H-pyrrol-3-yl)-N-methylmethanamine hydrochloride]",ED50,"Rattus norvegicus, read-out: Mucus secretion ED50",12.2 mg/kg
same,Gastric index ED50,gastric damage area,13.4 mg/kg
